Data taken from PubChem BioAssay (NCI).
Several values for one entry are separate records, joined by “and”; a condition that tells them apart may be missing. Equal entries are not always repeated.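 Five concentrations, 48 hours, 96-well plates. The concentration for 50% growth inhibition is given as GI50. Definition used: TGI = concentration required for complete inhibition of growth.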

Experiments:
Assay in all cases: growth of human tumour cells (NCI), 48 h
SF-268 CNS = test system: SF-268 CNS
UACC-62 melanoma = test system: UACC-62 melanoma
HCT-15 colon = test system: HCT-15 colon
NCI-H23 lung = test system: NCI-H23 lung
OVCAR-3 ovarian = test system: OVCAR-3 ovarian
SK-MEL-5 melanoma = test system: SK-MEL-5 melanoma
HCT-116 colon = test system: HCT-116 colon
EKVX NSCLC = test system: EKVX NSCLC
U251 CNS = test system: U251 CNS
IGROV1 ovarian = test system: IGROV1 ovarian

| SMILES | GI50 (SF-268 CNS) | TGI (SF-268 CNS) | GI50 (UACC-62 melanoma) | TGI (UACC-62 melanoma) | GI50 (HCT-15 colon) | TGI (HCT-15 colon) | GI50 (NCI-H23 lung) | TGI (NCI-H23 lung) | GI50 (OVCAR-3 ovarian) | TGI (OVCAR-3 ovarian) | GI50 (SK-MEL-5 melanoma) | TGI (SK-MEL-5 melanoma) | GI50 (HCT-116 colon) | TGI (HCT-116 colon) | GI50 (EKVX NSCLC) | TGI (EKVX NSCLC) | GI50 (U251 CNS) | TGI (U251 CNS) | GI50 (IGROV1 ovarian) | TGI (IGROV1 ovarian) |
| --- | --- | --- | --- | --- | --- | --- | --- | --- | --- | --- | --- | --- | --- | --- | --- | --- | --- | --- | --- | --- |
| C=C1C(=O)O[C@H]2[C@H]1CC/C(CNC(=O)C(C)c1ccc(CC(C)C)cc1)=C\CC[C@@]1(C)O[C@@H]21 (stereo partly specified) | 1.74 µM | 3.58 µM | 1.67 µM | 3.38 µM | 1.47 µM | 3.25 µM | 1.67 µM | 3.32 µM | 1.54 µM | 2.95 µM | 1.71 µM | 3.08 µM | 1.32 µM | 2.92 µM | 1.67 µM | 3.22 µM | 1.67 µM | 3.1 µM | 1.59 µM | 3.43 µM |
| C#Cc1cccc(Nc2ncnc3ccc(-c4cnc(N)nc4)cc23)c1 | 1.79 µM | 20.6 µM | 1.83 µM | 11.4 µM | 2.55 µM | 13.2 µM | 3.67 µM | > 100 µM | 1.93 µM | 10.5 µM | 3.34 µM | 12.5 µM | 4.75 µM | 17.3 µM | 0.242 µM | 2.93 µM | 3.18 µM | 16.9 µM | 0.183 µM | 2.26 µM |
| O=c1oc2c(O)c(O)cc3c(=O)oc4c(O)c(O)cc1c4c23 |  | > 100 µM |  | > 100 µM |  | > 100 µM |  | > 100 µM |  | 82.2 µM | > 100 µM | > 100 µM |  | > 100 µM |  | > 100 µM |  | 79 µM |  | > 100 µM |
| CSC(=NC(=O)c1ccccc1)SCCSC(=NC(=O)c1ccccc1)SC |  | > 100 µM |  | > 100 µM |  | > 100 µM |  | > 100 µM |  | > 100 µM |  | > 100 µM |  | > 100 µM |  | > 100 µM |  | > 100 µM |  | > 100 µM |
| CSc1nc(SC)c2c(C)c(Br)[nH]c2n1 |  | > 100 µM |  | > 100 µM |  | > 100 µM |  | > 100 µM |  | > 100 µM |  | > 100 µM |  | > 100 µM |  | > 100 µM |  | > 100 µM |  | > 100 µM |
| CN(C)C[C@@H]1CCn2cc(c3ccccc32)C2=C(C(=O)NC2=O)c2cn(c3ccccc23)CCO1 | 4.1 µM | > 10 µM | 0.792 µM | > 10 µM | 1.61 µM | > 10 µM | 2.95 µM | > 10 µM | 2.65 µM | > 10 µM | 1.39 µM | 7.11 µM | 0.374 µM | 1.56 µM | 3.92 µM | > 10 µM | 1.9 µM | > 10 µM | 1.3 µM | 8.49 µM |
| O=C1C(c2ccccc2)=[N+]([O-])c2cc([N+](=O)[O-])ccc21 |  | 46.9 µM |  | 26.9 µM |  | 56.5 µM |  | > 100 µM |  | 36.8 µM |  | 39.2 µM |  | 53.4 µM |  | 34.5 µM |  | > 100 µM |  | 53.5 µM |
| CC(C)c1ccc(C(O)(C(=O)O)c2ccc(C(C)C)cc2)cc1 |  | > 100 µM |  | > 100 µM |  | > 100 µM |  | > 100 µM |  | 60.7 µM |  | > 100 µM |  | > 100 µM |  | > 100 µM |  | 42.9 µM |  | > 100 µM |
| COc1ccc2c(c1)C(=O)/C(=C/c1cccc(OCC(=O)c3ccc([N+](=O)[O-])cc3)c1)CO2 | 2.7 µM | 7.74 µM | 2.82 µM | 9.36 µM | 2.17 µM | 6.92 µM | 2.52 µM | 6.33 µM | 1.94 µM | 3.72 µM | 2.79 µM | 8.05 µM | 1.33 µM | 2.67 µM | 7.68 µM | 21.9 µM | 1.6 µM | 3.16 µM | 1.48 µM | 3.86 µM |
| CC(=O)OCC1OC([S-])C(OC(C)=O)C(OC(C)=O)C1OC(C)=O.[Au+].c1ccc(CN2[CH-]N(Cc3ccccc3)C(c3ccccc3)=C2c2ccccc2)cc1 | 2.43 µM and 0.458 µM | 6.11 µM and 1.78 µM | 2.15 µM and 0.249 µM | 5.62 µM and 1.14 µM | 1.8 µM and 0.906 µM | 3.68 µM and 2 µM | 1.93 µM and 0.408 µM | 4.86 µM and 3.11 µM | 1.8 µM and 0.444 µM | 3.25 µM and 1.28 µM | 4.95 µM and 0.839 µM |  | 3.08 µM and 0.554 µM | 9.95 µM and 2.52 µM | 2.92 µM and 0.523 µM | 9.53 µM and 4.27 µM | 1.74 µM and 0.251 µM | 3.2 µM and 0.942 µM | 1.83 µM and 0.514 µM | 3.91 µM and 1.44 µM |
| C=C1CCCC2OC(OC)CCC12 (stereo unspecified) |  | > 100 µM |  | > 100 µM |  | > 100 µM |  | > 100 µM |  | > 100 µM |  | > 100 µM |  | > 100 µM |  | > 100 µM |  | > 100 µM |  | > 100 µM |
| C=C1C(=O)O[C@H]2C3OC3(C)CC/C=C(/C(=O)OC)[C@@H](OC(C)=O)[C@H](OC(=O)C3(C)OC3C)[C@H]12 (stereo partly specified) | 2.44 µM and 3.42 µM and 4.97 µg/mL | 35.7 µM and 14.9 µg/mL | 1.59 µM and 1.66 µg/mL | 3.01 µM and 3.64 µg/mL | 899 nM and 3.85 µM and 0.482 µg/mL | 2.78 µM and 32.2 µM and 2.13 µg/mL | 1.93 µM and 2.68 µM | 7.27 µM and 6.54 µM | 1.37 µM and 0.984 µg/mL | 4.07 µM and 3.13 µg/mL | 1.88 µM and 1.91 µM and 2.6 µg/mL | 3.87 µM and 7.72 µM and 9.58 µg/mL | 1.17 µM and 668 nM and 0.444 µg/mL | 2.39 µM and 1.67 µM and 1.19 µg/mL | 5.71 µM and 4.57 µM and 3.81 µg/mL | 26.8 µM and 9.61 µg/mL | 3.73 µM and 5.25 µg/mL | 12.7 µM and 14.9 µg/mL | 1.47 µM and 3.2 µM and 2.29 µg/mL | 3.17 µM and 14.6 µM and 5.62 µg/mL |
| CC(C)c1ccc(C(c2c(O)c3ccccc3oc2=O)c2c(O)c3ccccc3oc2=O)cc1 |  | 66.6 µM |  | 31.2 µM |  | 46.4 µM |  | 51.6 µM |  | 37.9 µM |  | 31.3 µM |  | 33.2 µM |  | 55.2 µM |  | 30.1 µM |  | > 62.6 µM |
| Cl.[O-]c1cccc2cccnc12.[O-]c1cccc2cccnc12.[O-]c1cccc2cccnc12.[O-]c1cccc2cccnc12.[Ti+4] | 0.594 µM | > 100 µM | 1.84 µM | 14.6 µM | 0.354 µM | 7.06 µM | 1.4 µM |  | 0.121 µM | 0.621 µM |  | 2.46 µM | 0.355 µM |  | 0.916 µM | > 27.4 µM | 2.53 µM | 30.5 µM |  | 2.92 µM |
